The text below walks through data of US10800732B2, “Substituted malonamides and their use as antibacterial drugs” (National Taiwan University, priority 2015, dated 2020).

Values after ≈ are worked out from the molar mass of the structure shown. Like-named read-outs stand apart in the source and are kept apart here.

The test system of one assay is S. aureus NCTC 8325. Nature of the assay: MIC, S. aureus NCTC 8325 (CLSI broth microdilution / agar dilution). In kind it is cell-based, Staphylococcus aureus. The following applies: MSSA NCTC 8325, Table 6. (In general: In broth dilution the organism is exposed to a series of concentrations in liquid medium.)
For a further assay, the system named is MRSA ATCC 33592. Put plainly: MIC, MRSA ATCC 33592. Type of assay: cell-based, methicillin-resistant Staphylococcus aureus. The following applies: Staphylococcus aureus; MRSA ATCC 33592; Table 6; read-out: MIC.
Where [1] appears, read: Staphylococcus aureus, read-out: MIC.

The term MIC denotes the least concentration at which growth counts as inhibited.

Consider `O=C(Nc1ccc(Cl)c(C(F)(F)F)c1)C1(C(=O)Nc2ccc(Cl)c(C(F)(F)F)c2)CC1` [SC5020, N,N′-bis(4-chloro-3-(trifluoromethyl)phenyl)cyclopropane-1,1-dicarboxamide], for which the MIC in the assay on S. aureus NCTC 8325 (setting [1]) was greater than 8 µg/mL.
`C#Cc1cccc(NC(=O)C2(C(=O)Nc3cccc(C#C)c3)CC2)c1` [SC5021, N,N′-bis(3-ethynylphenyl)cyclopropane-1,1-dicarboxamide]: in the assay with S. aureus NCTC 8325 (setting [1]), the MIC was 8 µg/mL (≈ 24.4 µM).
Same read-out and setting: the result for `O=C(Nc1ccccc1)C(CCCl)C(=O)Nc1ccccc1` [SC5022, 2-(2-chloroethyl)-N^1,N^3-diphenylmalonamide] reads greater than 8 µg/mL.
On to `O=C(Nc1cccc(C(F)(F)F)c1)C(CCCl)C(=O)Nc1cccc(C(F)(F)F)c1` [SC5023, 2-(2-chloroethyl)-N^1,N^3-bis(3-(trifluoromethyl)phenyl)malonamide], for which the figures for the MIC with S. aureus NCTC 8325 (setting [1]) and in the assay with MRSA ATCC 33592 were 2 µg/mL (≈ 4.42 µM) and 1 µg/mL (≈ 2.21 µM), respectively.
The like results for `O=C(Nc1ccc(OC(F)(F)F)cc1)C(CCCl)C(=O)Nc1ccc(OC(F)(F)F)cc1` [SC5024, 2-(2-chloroethyl)-N^1,N^3-bis(4-(trifluoromethoxy)phenyl)malonamide] were, in that order, 1 µg/mL (≈ 2.06 µM) and 1 µg/mL (≈ 2.06 µM).
The like results for `O=C(Nc1cc(Cl)cc(Cl)c1)C(CCCl)C(=O)Nc1cc(Cl)cc(Cl)c1` [SC5025, 2-(2-chloroethyl)-N^1,N^3-bis(3,5-dichlorophenyl)malonamide] were, in that order, 0.25 µg/mL (≈ 0.55 µM) and 0.25 µg/mL (≈ 0.55 µM).
`C#Cc1cccc(NC(=O)C(CCCl)C(=O)Nc2cccc(C#C)c2)c1` [SC5026, 2-(2-chloroethyl)-N^1,N^3-bis(3-ethynylphenyl)malonamide]: the MIC with S. aureus NCTC 8325 (setting [1]) was greater than 8 µg/mL.
Still for that read-out and setting: the figure for `O=C(Nc1cccc(Cl)c1)C(CCCl)C(=O)Nc1cccc(Cl)c1` [SC5027, 2-(2-chloroethyl)-N^1,N^3-bis(3-chlorophenyl)malonamide] is greater than 8 µg/mL; for `O=C(Nc1cccc([N+](=O)[O-])c1)C(CCCl)C(=O)Nc1cccc([N+](=O)[O-])c1` [SC5028, 2-(2-chloroethyl)-N^1,N^3-bis(3-nitrophenyl)malonamide] it is greater than 64 µg/mL.
In the case of `Cc1ccc(NC(=O)C(CCCl)C(=O)Nc2ccc(C)c(O)c2)cc1O` [SC5029, 2-(2-chloroethyl)-N^1,N^3-bis(3-hydroxy-4-methylphenyl)malonamide], the minimal inhibitory concentration (MIC) with S. aureus NCTC 8325 (setting [1]) was 8 µg/mL (≈ 21.2 µM).
On the same count and under the same terms, the result for `O=C(Nc1ccc(Cl)c(O)c1)C(CCCl)C(=O)Nc1ccc(Cl)c(O)c1` [SC5030, N^1,N^3-bis(4-chloro-3-hydroxyphenyl)-2-(2-chloroethyl)malonamide] reads greater than 16 µg/mL.
Same read-out and setting: the figure for `O=C(Nc1cccc(O)c1)C(CCCl)C(=O)Nc1cccc(O)c1` [SC5031, 2-(2-chloroethyl)-N^1,N^3-bis(3-hydroxyphenyl)malonamide] is greater than 64 µg/mL.
Consider `O=C(Nc1cc(C(F)(F)F)cc(C(F)(F)F)c1)C(CCCl)C(=O)Nc1cc(C(F)(F)F)cc(C(F)(F)F)c1` [SC5032, N,N^3-bis(3,5-bis(trifluoromethyl)phenyl)-2-(2-chloroethyl)malonamide], for which the MIC with S. aureus NCTC 8325 (setting [1]) was 32 µg/mL (≈ 54.4 µM).
Still for that read-out and setting: the result for `O=C(Nc1ccc([N+](=O)[O-])c(C(F)(F)F)c1)C(CCCl)C(=O)Nc1ccc([N+](=O)[O-])c(C(F)(F)F)c1` [SC5034, 2-(2-chloroethyl)-N^1,N^3-bis(4-nitro-3-(trifluoromethyl)phenyl)malonamide] reads 1 µg/mL (≈ 1.84 µM).
In the case of `O=C(Nc1cc(Cl)cc(Cl)c1)C(CCCl)C(=O)Nc1cc(C(F)(F)F)cc(C(F)(F)F)c1` (stereo not shown) [SC5036, N^1-(3,5-bis(trifluoromethyl)phenyl)-2-(2-chloroethyl)-N^3-(3,5-dichlorophenyl) malonamide], the minimal inhibitory concentration (MIC) stood at 0.25 µg/mL (≈ 0.479 µM) in the assay on S. aureus NCTC 8325 (setting [1]) and 0.5 µg/mL (≈ 0.958 µM) with MRSA ATCC 33592.
As to `C=CCC(C(=O)Nc1ccc(Cl)c(C(F)(F)F)c1)C(=O)Nc1ccc(Cl)c(C(F)(F)F)c1` [SC5037, 2-allyl-N^1,N^3-bis(4-chloro-3-(trifluoromethyl)phenyl)malonamide], the minimum inhibitory concentration (MIC) in the assay on S. aureus NCTC 8325 (setting [1]) was 8 µg/mL (≈ 16 µM); in the assay on MRSA ATCC 33592, greater than 32 µg/mL.
“N^1,N^3-bis(4-pentafluorosulfurphenyl)-2-(2-chloroethyl)malonamide [SC5033]” gave a minimum inhibitory concentration (MIC) against S. aureus NCTC 8325 of 32 µg/mL.
